Results: PubChem BioAssay (NCI)
Where “and” joins values, the source holds several entries; their conditions need not be identical. Equal entries are not always repeated.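 Five compound concentrations were applied to cells in 96-well plates for 48 hours; endpoints were derived by simple linear interpolation of the resulting dose-response curve. GI50: concentration for 50% inhibition of growth. TGI marks complete inhibition of growth.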

Each molecule was assayed on MDA-MB-468 breast (assay: NCI anticancer screen, dose series, 48 h).

Compared with `COc1c(C)c2c(c(O)c1C/C=C(\C)CCC(=O)O)C(=O)OC2`, `COc1ccc2[nH]c(O)c(N=NC(=O)c3oc4ccccc4c3C)c2c1` is 5-fold higher in GI50: 515 nM for the first, 2600 nM for the second.

Going from `COc1cnc2c(c1)C(=O)c1c-2n(CCCn2ccnc2)c(=O)c2cc(F)ccc12` to `O=C(NNc1nc2cc(F)ccc2n2c(CO)ccc12)c1cnccn1`, the GI50 rises from 19.7 nM to 448 nM (23-fold).

First: CC(C)[C@H](N)C(=O)N1CCC[C@H]1B(O)O
Second: CN[C@@H](C)C(=O)N[C@H](C(=O)N1CCC[C@H]1C(=O)Nc1snnc1-c1ccccc1)C1CCCCC1
The GI50 of the first is higher: over 100000 nM for the first, 16000 nM for the second.

Compared with `C[C@H]1[C@H](C)CC[C@]2(CO)CC[C@]3(C)C(=CC[C@@H]4[C@@]5(C)CCCNC(C)(C)[C@@H]5CC[C@]43C)[C@H]12`, `C#C[C@]1(O)CC[C@H]2[C@@H]3CC=C4c5sc(Nc6ccncc6)nc5CC[C@]4(C)[C@H]3CC[C@@]21C` is 3.6-fold lower in GI50: 1700 nM for the first, 477 nM for the second.

Compared with `FC(F)(F)c1ccc(Nc2nc(-c3c(C(F)(F)F)nc4ccccn34)cs2)cc1`, `CC(C)(C)n1cc(-c2ccnc(NCCCNS(=O)(=O)c3ccc(C(F)(F)F)cc3)c2)c(-c2cccc(O)c2)n1` is 12-fold higher in GI50: 160 nM for the first, 1880 nM for the second.

First: C=C1C(=O)O[C@H]2[C@H]1CC/C(COC(=O)NCc1ccc(Cn3c(=O)sn(CCCl)c3=O)cc1)=C\CC[C@@]1(C)O[C@@H]21
Second: C=C1C(=O)O[C@H]2[C@H]1CC/C(COC(=O)NCc1cn(C)c3ccccc13)=C\CC[C@@]1(C)O[C@@H]21
The GI50 of the first is 2.1-fold higher: 1780 nM for the first, 836 nM for the second.

Compared with `COc1ccc(-c2cc(=O)[nH]c3c(OC)c4ccccc4c(OC)c23)cc1`, `COc1ccc(-c2c[nH]c(C(=O)O)c2-c2cc(OC)c(OC)c(OC)c2)cc1` is 4-fold higher in GI50: 557 nM for the first, 2240 nM for the second.

First: COC(=O)c1nc(-c2ccccc2)oc1S(=O)(=O)Cc1ccccc1
Second: CN(C)CCN1C(=O)c2ccccc2N(C)c2ccccc21
The GI50 of the first is lower: 1850 nM for the first, over 100000 nM for the second.

Going from `C#Cc1c(F)ccc2cc(O)cc(-c3ncc4c(N5CC6CCC(C5)N6)nc(OC[C@@]56CCCN5C[C@H](F)C6)nc4c3F)c12` to `CC(C)(C)c1ccc(Oc2nccc(-c3c(-c4ccc(F)cc4)ncn3C3CCNCC3)n2)cc1`, the GI50 falls from 4780 nM to 2580 nM (1.9-fold).

Going from `Cc1c(C(N)=O)sc2c1C(=O)N(Cc1ccccc1)C1=NN=C(c3ccc(Cl)cc3)CN12` to `COc1ccc(-c2nc(-c3nc4ccc(OC)cc4[nH]3)c3ccccn23)cc1`, the GI50 rises from 1930 nM to 4080 nM (2.1-fold).

Going from `COc1cc(CSc2nc3ccc(C)cc3c(=O)n2-c2ccccc2)cc(OC)c1OC` to `COc1ccc(C(=O)c2cc(OC)c(OC)c(OC)c2)cc1OC(=O)CCl`, the GI50 rises from 266 nM to 787 nM (3-fold).

Compared with `c1ccc2[nH]c(-c3ccc(-c4nccc5c4[nH]c4ccccc45)cc3)nc2c1`, `CCN(CC)CCCCNc1c2ccccc2[n+](C)c2c1[nH]c1ccccc12` is 11-fold lower in GI50: 2520 nM for the first, 222 nM for the second.

`Cc1cc(O)c(C(C)C)cc1S(=O)(=O)O` (tested in a mixture with another compound) and `CCN(CC)c1ccc(/C=N/NC(=O)c2ccc(NS(C)(=O)=O)cc2)c(O)c1` are within 1.5-fold of each other in GI50: 273 nM for the first, 331 nM for the second.

`Nc1c(C(=O)c2cccc(-c3ccncc3)c2)cnn1-c1ccc(F)cc1F` and `O=C(CCCCCCCCC(=O)N/N=C\c1ccccc1O)N/N=C\c1ccccc1O` are within 1.5-fold of each other in GI50: 2180 nM for the first, 1620 nM for the second.

Going from `C=C(C)C(=O)Nc1ccc(NC(C)C)cc1` to `COc1cc(NC(C)CCCNC2CN3CCC2CC3)c2ncccc2c1` (configuration not stated), the GI50 falls from over 100000 nM to 1710 nM.

Going from `CC/C=C1/C(=O)C=C[C@@H]1C/C=C\CCCC(=O)OC` to `CCCCCCCCCCCCCCCCCCOc1ccccc1CC(=O)OCC[N+]1(C)CCCCC1`, the GI50 falls from 2310 nM to 1530 nM (1.5-fold).

First: C=C1CCC2C3(C)COC(c4ccc(N(C)C)cc4)OC3CCC2(C)C1C/C=C1/C(=O)OCC1O (configuration not stated)
Second: COc1ccc(C(=O)OC2C(OC3C(O)COC(O[C@H]4C[C@H]5[C@@H]6CC=C7C[C@@H](O)CC[C@]7(C)[C@H]6CC[C@]5(C)[C@H]4[C@H](C)C(=O)CCC(C)C)C3OC(N)=O)OCC(O)C2O)cc1 (some centres not stated)
The GI50 of the first is 18-fold higher: 1440 nM for the first, 78.1 nM for the second.

Molecule `CC(C)(C)OC(=O)N1CCN(CCn2cc(C(F)(F)F)c3c(Cl)ncnc32)CC1` has a GI50 of 1920 nM.

First: COc1c(C)c2c(c(O)c1C/C=C(\C)CCC(=O)O)C(=O)OC2
Second: COc1ccc2[nH]c(O)c(N=NC(=O)c3oc4ccccc4c3C)c2c1
The TGI of the first is higher: over 100000 nM for the first, 6530 nM for the second.

Going from `COc1cnc2c(c1)C(=O)c1c-2n(CCCn2ccnc2)c(=O)c2cc(F)ccc12` to `O=C(NNc1nc2cc(F)ccc2n2c(CO)ccc12)c1cnccn1`, the TGI rises from 154 nM to 3340 nM (22-fold).

Compared with `CC(C)[C@H](N)C(=O)N1CCC[C@H]1B(O)O`, `CN[C@@H](C)C(=O)N[C@H](C(=O)N1CCC[C@H]1C(=O)Nc1snnc1-c1ccccc1)C1CCCCC1` is lower in TGI: over 100000 nM for the first, 59400 nM for the second.

Going from `C[C@H]1[C@H](C)CC[C@]2(CO)CC[C@]3(C)C(=CC[C@@H]4[C@@]5(C)CCCNC(C)(C)[C@@H]5CC[C@]43C)[C@H]12` to `C#C[C@]1(O)CC[C@H]2[C@@H]3CC=C4c5sc(Nc6ccncc6)nc5CC[C@]4(C)[C@H]3CC[C@@]21C`, the TGI falls from 3440 nM to 2270 nM (1.5-fold).

Compared with `FC(F)(F)c1ccc(Nc2nc(-c3c(C(F)(F)F)nc4ccccn34)cs2)cc1`, `CC(C)(C)n1cc(-c2ccnc(NCCCNS(=O)(=O)c3ccc(C(F)(F)F)cc3)c2)c(-c2cccc(O)c2)n1` is 3.9-fold higher in TGI: 1040 nM for the first, 4060 nM for the second.

Compared with `C=C1C(=O)O[C@H]2[C@H]1CC/C(COC(=O)NCc1ccc(Cn3c(=O)sn(CCCl)c3=O)cc1)=C\CC[C@@]1(C)O[C@@H]21`, `C=C1C(=O)O[C@H]2[C@H]1CC/C(COC(=O)NCc1cn(C)c3ccccc13)=C\CC[C@@]1(C)O[C@@H]21` is 1.5-fold lower in TGI: 4520 nM for the first, 2950 nM for the second.

First: COC(=O)c1nc(-c2ccccc2)oc1S(=O)(=O)Cc1ccccc1
Second: CN(C)CCN1C(=O)c2ccccc2N(C)c2ccccc21
The TGI of the first is lower: 4020 nM for the first, over 100000 nM for the second.

Compared with `C#Cc1c(F)ccc2cc(O)cc(-c3ncc4c(N5CC6CCC(C5)N6)nc(OC[C@@]56CCCN5C[C@H](F)C6)nc4c3F)c12`, `CC(C)(C)c1ccc(Oc2nccc(-c3c(-c4ccc(F)cc4)ncn3C3CCNCC3)n2)cc1` is 2-fold lower in TGI: 11900 nM for the first, 5970 nM for the second.

Compared with `Cc1c(C(N)=O)sc2c1C(=O)N(Cc1ccccc1)C1=NN=C(c3ccc(Cl)cc3)CN12`, `COc1ccc(-c2nc(-c3nc4ccc(OC)cc4[nH]3)c3ccccn23)cc1` is 11-fold higher in TGI: 7540 nM for the first, 84500 nM for the second.

First: COc1cc(CSc2nc3ccc(C)cc3c(=O)n2-c2ccccc2)cc(OC)c1OC
Second: COc1ccc(-c2c[nH]c(C(=O)O)c2-c2cc(OC)c(OC)c(OC)c2)cc1
The TGI of the first is 3.2-fold lower: 2110 nM for the first, 6780 nM for the second.

`c1ccc2[nH]c(-c3ccc(-c4nccc5c4[nH]c4ccccc45)cc3)nc2c1` and `CCN(CC)CCCCNc1c2ccccc2[n+](C)c2c1[nH]c1ccccc12` are within 1.5-fold of each other in TGI: 6620 nM for the first, 4850 nM for the second.

Going from `Cc1cc(O)c(C(C)C)cc1S(=O)(=O)O` (tested in a mixture with another compound) to `CCN(CC)c1ccc(/C=N/NC(=O)c2ccc(NS(C)(=O)=O)cc2)c(O)c1`, the TGI rises from 1180 nM to 2930 nM (2.5-fold).

Going from `Nc1c(C(=O)c2cccc(-c3ccncc3)c2)cnn1-c1ccc(F)cc1F` to `O=C(CCCCCCCCC(=O)N/N=C\c1ccccc1O)N/N=C\c1ccccc1O`, the TGI falls from 17900 nM to 5230 nM (3.4-fold).

First: C=C(C)C(=O)Nc1ccc(NC(C)C)cc1
Second: COc1cc(NC(C)CCCNC2CN3CCC2CC3)c2ncccc2c1 (configuration not stated)
The TGI of the first is higher: over 100000 nM for the first, 3840 nM for the second.

First: CC/C=C1/C(=O)C=C[C@@H]1C/C=C\CCCC(=O)OC
Second: CCCCCCCCCCCCCCCCCCOc1ccccc1CC(=O)OCC[N+]1(C)CCCCC1
The TGI of the first is 1.6-fold higher: 6040 nM for the first, 3830 nM for the second.

Compared with `C=C1CCC2C3(C)COC(c4ccc(N(C)C)cc4)OC3CCC2(C)C1C/C=C1/C(=O)OCC1O` (configuration not stated), `COc1ccc(C(=O)OC2C(OC3C(O)COC(O[C@H]4C[C@H]5[C@@H]6CC=C7C[C@@H](O)CC[C@]7(C)[C@H]6CC[C@]5(C)[C@H]4[C@H](C)C(=O)CCC(C)C)C3OC(N)=O)OCC(O)C2O)cc1` (some centres not stated) is 1.9-fold lower in TGI: 3090 nM for the first, 1600 nM for the second.

Work on `CC(C)(C)OC(=O)N1CCN(CCn2cc(C(F)(F)F)c3c(Cl)ncnc32)CC1` yielded a TGI of 3770 nM.

With `CCN(CC)CCCC(C)Nc1ccnc2cc(Oc3ccccc3)ccc12` (configuration not stated) the GI50 was 3060 nM and 3950 nM.
With `O=C(CCCCCCC(=O)Nc1ccccc1)NO` the GI50 was 361 nM and 899 nM.

In the case of `CCN(CC)CCCC(C)Nc1ccnc2cc(Oc3ccccc3)ccc12` (configuration not stated), the TGI is reported as 13300 nM and 15100 nM.
`O=C(CCCCCCC(=O)Nc1ccccc1)NO` was tested, and the TGI was 12300 nM and 10800 nM.
